Results taken from patent US11253519B2, “Composition used to improve symptoms of autism spectrum disorder, and method using same for improving symptoms of autism spectrum disorder” (RENASCIENCE CO., LTD., priority 2016, dated 2022).

Legend:
Type in all cases: in vivo, human
ASD patient [1] = assay: RSB-R (Repetitive Behavior Scale-Revised, Japanese version, 43 items, 6 subscales) in ASD patients before and after intake; conditions: 800 mg/day oral + fursultiamine 25 mg/day, 8 weeks after the intake
Excerpt: RSB-R is composed of 6 subscales (I. Stereotypical Behavior, II. Self-Harming Behavior, III. Obsessive-Compulsive Behavior, IV. Ritualized Behavior, V. Insistence on Sameness, and VI. Circumscribed Interests) and 43 items. RSB-R (Japanese version) is a Japanese version of RBS-R, which is a rating scale used worldwide, and whose validity has already been verified (Inada et al., Research in Autism Spectrum Disorders, Vol. 15-16, July 2015, pp. 60-68; Inada et al., Study on reliability and validity of the Japanese version of Repetitive Behaviors Scale—Revised (RBS-R), The Japanese Journal of Developmental Psychology, 2012, Vol. 23, No. 2, pp. 123-133). FIG. 4 illustrates 43 items of RSB-R (including 6 subscales), and the relation between the 43 items of RSB-R and diagnostic criteria A and B of DSM-5.
(§1) The symptoms of ASD of the ASD patient were assessed based on the scores of ABC-J, PARS-TR, and RSB-R (Japanese version) by a medical doctor who is a researcher of ASD.
The ASD symptoms of the ASD patient were assessed based on the scores in ABC-J and RSB-R (Japanese version) by a medical doctor who is a researcher of ASD.

[2] = Vitamin B1 level in whole blood, serum pyridoxamine and pyridoxal levels and Wernicke's encephalopathy in two test subjects on pyridoxamine medication
[3] = Plasma kinetics of pyridoxamine and metabolites in healthy male adults (LC-MS-MS)
Excerpt: Rather, in blood, the pyridoxal level was higher than the pyridoxamine level. […] The observation results were obtained in a clinical trial performed by collaborators of the applicant of this application, and are shown here simply for reference.

ASD patient [4] = assay: PARS-TR rating (items 25 to 57, each 0 none, 1 somewhat noticeable, 2 noticeable) in ASD patients before and after intake
Excerpt: PARS (Pervasive Developmental Disorder Autism Society Japan Rating Scale) is a scale composed of 57 items to determine the characteristics in pervasive developmental disorder (PDD) (which may hereinafter also simply be referred to as “PDD”), and to evaluate the support difficulty by interviewing the mothers of the subjects (or other rearer, if it is difficult to obtain information from the mother of a subject); PARS-TR is its revised version. The revised version contains revised wording of the commentary of question items, while maintaining the reliability and validity of the rating scale of the former PARS. On a side note, question items and rating in PARS-TR, PARS-TR items rated for each age group, a score calculation method, and an ASD characteristics test method are detailed in PARS-TR PARS Text Revision (written and edited by Hattatsu Shogai Shien no tameno Hyoka Kenkyu Kai [Study of the Assessment for Supporting Developmental Disorder], a general incorporated association, Spectrum Publishing Company), the disclosure of which is incorporated herein by reference.
FIG. 3 illustrates 57 rating items prescribed in PARS-TR. The rating items vary depending on the age group of targets for diagnosis (children before school age (early childhood), elementary school students (childhood), and junior high-school students or older subjects (early adolescence or adulthood)). Items 1 to 34 are directed to those in early childhood. Items 1 to 34 are intended to assess the peak in early childhood (assessment for most noticeable symptoms in early childhood) of all subjects (children before school age, elementary school students, and junior high-school students or older subjects), and also to assess the current condition of subjects in early childhood. Peak assessment and current condition assessment are performed for young children because, for example, clear autistic symptoms before the age of 4 years may be alleviated after age 5. Young children are not assessed by items 35 to 57. Elementary school students are assessed by items 1 to 34 for early childhood to determine the peak in early childhood, and items 21 to 53 for childhood to determine the current condition. Junior high-school students or older subjects are assessed by the 34 items for early childhood to determine the peak in early childhood, and items 25 to 57 for early adolescence or adulthood to determine the current condition. The specific evaluation method is described in detail in Example 2.
Assessment by PARS-TR is performed by questioning the mother or someone else regarding the severity of symptoms concerning development and behaviors described in rating items in terms of “assessment of the peak in early childhood” and “assessment of the current condition,” and the answer was classified into the following 3 levels and assessed: “0=none (no symptoms asked were observed/no),” “1=somewhat noticeable (symptoms asked were sometimes (somewhat) observed/yes),” and “2=noticeable (symptoms asked were often (quite) observed/yes).” The PARS-TR score is a value determined by simply summing up the assessment score of each item, excluding items that cannot be assessed. Specifically, the cutoff value at which the subject is diagnosed with PDD is score 9 in early childhood, score 13 in childhood, and score 20 in early adolescence or adulthood.
[…] The total scores were compared.
as §1

[5] = case 2, 600 mg/day oral + fursultiamine 25 mg/day, 17 Days After Administration, Before Administration: 0
[6] = case 2, 600 mg/day oral + fursultiamine 25 mg/day, 17 Days After Administration, Before Administration: 1
[7] = case 2, 600 mg/day oral + fursultiamine 25 mg/day, 17 Days After Administration, Before Administration: 2
[8] = case 3, 800 mg/day oral + fursultiamine 25 mg/day, 8 weeks after the intake, before intake: rating 1

Cc1ncc(CO)c(CN)c1O.Cl.Cl [pyridoxamine dihydrochloride]
RBS-R total score for each subscale compared with before the intake (ASD patient [1]; case 3, 6 subscales, FIG. 8B): significant decrease | RBS-R total score compared with before the intake (ASD patient [1]; case 3, FIG. 8A): significant decrease | total score of all items in RBS-R compared with before the intake (ASD patient [1]; case 4, FIG. 10A): significantly decreased | RBS-R total score of subscale items (Stereotypical Behavior, Self-Harming Behavior, Obsessive-Compulsive Behavior, Insistence on Sameness) (ASD patient [1]; case 4, FIG. 10B): significantly decreased | concentration at 4 weeks ([2]; human, serum, oral, subject ID No. 3, 4 weeks after start of administration): 1540 ng/mL | concentration at 12 weeks ([2]; human, serum, oral, subject ID No. 3, 12 weeks after start, with fursultiamine 75 mg/day): 23.2 ng/mL | concentration at 8 weeks ([2]; human, serum, oral, subject ID No. 6, 8 weeks after start of administration): 421 ng/mL | concentration at 11 weeks ([2]; human, serum, oral, subject ID No. 6, 11 weeks after start, with fursultiamine): 140 ng/mL | brain MRI finding during medication ([2]; subject ID No. 3, 6 weeks after start of administration, epilepsy-like symptom): sign suggestive of Wernicke's encephalopathy | brain MRI finding during medication ([2]; subject ID No. 6, 9 weeks after start of administration): signs suggestive of Wernicke's encephalopathy | plasma levels of pyridoxamine, pyridoxal, and 4-pyridoxic acid versus dose ([3]; 300, 600, 900 mg/dose oral): increased along with the increase in dose | time to peak plasma level of pyridoxamine (unchanged substance) ([3]; 300, 600 or 900 mg/dose oral at 0, 6 and 12 hours, trial by collaborators of the applicant): 3 h | plasma pyridoxine (PN) level ([3]; 300, 600 or 900 mg/dose oral, FIG. 14B): did not show any substantial change | PARS-TR item 27: Having negative lifestyle habits, and being incapable of living independently (ASD patient [4]; [5]): 0 | PARS-TR item 29: Showing extreme pickiness in food, with no extremely narrow range of food choice (ASD patient [4]; [5]): 0 | PARS-TR item 31: Being insensitive or sensitive to pain or heat (ASD patient [4]; [5]): 0 | PARS-TR item 32: Being terrified of nothing (ASD patient [4]; [5]): 0 | PARS-TR item 34: Showing self-harming behaviors, such as hitting the head on the wall or biting the hand (ASD patient [4]; [5]): 0 | PARS-TR item 39: Having difficulty understanding what is said from one situation to another (ASD patient [4]; [5]): 0 | PARS-TR item 40: Using big words, but not fully understanding the meaning thereof (ASD patient [4]; [5]): 0 | PARS-TR item 41: Difficulty understanding who is talking to who in a large group conversation (ASD patient [4]; [5]): 0 | PARS-TR item 42: Being incapable of explaining how and why (ASD patient [4]; [5]): 0 | PARS-TR item 47: Enacting a familiar scene from a TV show alone (ASD patient [4]; [5]): 0 | PARS-TR item 48: Persistently and repeatedly harassing someone on purpose (ASD patient [4]; [5]): 0 | PARS-TR item 49: Always wanting to be the best (ASD patient [4]; [5]): 0 | PARS-TR item 50: Showing tic symptoms (e.g., blinking, head movements, abuseful language) (ASD patient [4]; [5]): 0 | PARS-TR item 51: Being restless in a manner inappropriate for the context (ASD patient [4]; [5]): 0 | PARS-TR item 53: Showing behavioral arrest, and becoming incapable of moving to the next act fo frozen (ASD patient [4]; [5]): 0 | PARS-TR item 25: Persistently asking the same question (ASD patient [4]; [6]): 0 | PARS-TR item 26: Showing confusion when regular daily routine of procedures suddnly change (ASD patient [4]; [6]): 1 | PARS-TR item 33: Suddenly crying or becoming upset (ASD patient [4]; [6]): 0 | PARS-TR item 36: Showing self-centered behaviors without regard for surrounding people (ASD patient [4]; [6]): 0 | PARS-TR item 37: Showing interactive behaviors inappropriate for the context when approached by someone (ASD patient [4]; [6]): 1 | PARS-TR item 38: Interacting with others only when having a request (ASD patient [4]; [6]): 0 | PARS-TR item 43: Speaking in a unnatural and monotonous tone (ASD patient [4]; [6]): 1 | PARS-TR item 44: Having difficulty understanding another person's feeling or point of view (ASD patient [4]; [6]): 0 | PARS-TR item 45: Having difficulty understanding jokes and irony, and interpreting them literally (ASD patient [4]; [6]): 1 | PARS-TR item 52: Being very careless, unable to behave appropriately for the context (ASD patient [4]; [6]): 0 | PARS-TR item 54: Appearing unashamed (ASD patient [4]; [6]): 1 | PARS-TR item 55: Being easily deceived (ASD patient [4]; [6]): 1 | PARS-TR item 56: Being likely to feel victimized, suspicious, or aggressive (ASD patient [4]; [6]): 0 | PARS-TR item 57: Being emotionally unstable, and showing frequent emotional ups and downs (ASD patient [4]; [6]): 0 | PARS-TR item 28: Becoming mentally unstable when recalling bad events in the past (ASD patient [4]; [7]): 1 | PARS-TR item 30: Being disgusted with a particular sound (ASD patient [4]; [7]): 1 | PARS-TR item 46: Being keen on acquiring knowledge in a particular field, such as the names of places or train stations (ASD patient [4]; [7]): 1 | PARS-TR Total Score of Items 25 to 57 (ASD patient [4]; case 2, 600 mg/day oral + fursultiamine 25 mg/day, 17 Days After Administration, Before Administration: 22, cutoff 20 or more): 11 | severity of hypersensibility (ASD patient [4]; case 3, 800 mg/day oral + fursultiamine 25 mg/day, 8 weeks): lowered the severity of hypersensibility | PARS-TR item 31 rating (insensitive to pain) (ASD patient [4]; [8]): 1 | PARS-TR item 32 rating (frightened by wipers, ceiling fan) (ASD patient [4]; [8]): 0 | PARS-TR item 30 rating (hyperacusis) (ASD patient [4]; case 3, 800 mg/day oral + fursultiamine 25 mg/day, 8 weeks after the intake, before intake: rating 2): 1 | PARS-TR current score in early adolescence or adulthood (ASD patient [4]; case 3, 800 mg/day oral + fursultiamine 25 mg/day, 18 weeks after the intake, before intake: 21, cutoff score 20): 14
